{"source": "patent US20260285850A1", "about": "“SUBSTITUTED OXAZOLIDINONES AND IMIDAZOLINONES AS HERBICIDES” (FMC CORPORATION, priority 2023, published 2026)", "type_in_all_cases": "in vivo", "key": {"[1]": {"system": "oat, wild (wild oat, Avena fatua)", "assay": "Test A preemergence soil spray, visual injury rating 0-100", "settings": "10 days, 0 = no effect, 100 = complete control", "procedure,_shortened": "(§1)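 Visual injury, scored 0-100 (100 = complete control) against untreated plants, 10 days after greenhouse treatment. Test chemicals in surfactant-containing non-phytotoxic solvent were applied in loam soil and sand, as a preemergence soil spray on seeds or postemergence to plants at the one- to two-leaf stage.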"}, "[2]": {"system": "blackgrass (Alopecurus myosuroides)", "assay": "Test A preemergence soil spray, visual injury rating 0-100", "settings": "10 days, 0 = no effect, 100 = complete control", "procedure,_shortened": "as §1"}, "[3]": {"system": "palmer (palmer amaranth, palmer pigweed, Amaranthus palmeri)", "assay": "Test A preemergence soil spray, visual injury rating 0-100", "settings": "10 days, 0 = no effect, 100 = complete control", "procedure,_shortened": "as §1"}, "[4]": {"system": "barnyardgrass (Echinochloa crus-galli)", "assay": "Test A preemergence soil spray, visual injury rating 0-100", "settings": "10 days, 0 = no effect, 100 = complete control", "procedure,_shortened": "as §1"}, "corn (Zea mays) [5]": {"system": "corn (Zea mays)", "assay": "Test A preemergence soil spray, visual injury rating 0-100", "settings": "10 days, 0 = no effect, 100 = complete control", "procedure,_shortened": "as §1"}, "[6]": {"system": "green foxtail (Setaria viridis)", "assay": "Test A preemergence soil spray, visual injury rating 0-100", "settings": "10 days, 0 = no effect, 100 = complete control", "procedure,_shortened": "as §1"}, "kochia (Bassia scoparia) [7]": {"system": "kochia (Bassia scoparia)", "assay": "Test A preemergence soil spray, visual injury rating 0-100", "settings": "10 days, 0 = no effect, 100 = complete control", "procedure,_shortened": "as §1"}, "soybean (Glycine max) [8]": {"system": "soybean (Glycine max)", "assay": "Test A preemergence soil spray, visual injury rating 0-100", "settings": "10 days, 0 = no effect, 100 = complete control", "procedure,_shortened": "as §1"}, "[9]": {"system": "wheat (Triticum aestivum)", "assay": "Test A preemergence soil spray, visual injury rating 0-100", "settings": "10 days, 0 = no effect, 100 = complete control", "procedure,_shortened": "as §1"}, "[10]": {"system": "ragweed (common ragweed, Ambrosia artemisiifolia)", "assay": "Test A preemergence soil spray, visual injury rating 0-100", "settings": "10 days, 0 = no effect, 100 = complete control", "procedure,_shortened": "as §1"}, "[11]": {"system": "ryegrass, Italian (italian ryegrass, Lolium multiflorum)", "assay": "Test A preemergence soil spray, visual injury rating 0-100", "settings": "10 days, 0 = no effect, 100 = complete control", "procedure,_shortened": "as §1"}, "[12]": {"system": "ducksalad (Heteranthera limosa)", "assay": "Test B flooded paddy test, visual plant response rating 0-100", "settings": "250 g ai/ha, Flood, applied to paddy water, evaluated after 13 days", "procedure,_shortened": "(§2)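 Visual evaluation after 13 days. Water-applied treatment, 3 cm flood depth held constant, plants at 2-leaf stage at treatment.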"}, "rice (Oryza sativa)": {"system": "rice (Oryza sativa)", "assay": "Test B flooded paddy test, visual plant response rating 0-100", "settings": "250 g ai/ha, Flood, applied to paddy water, evaluated after 13 days", "procedure,_shortened": "as §2"}, "[13]": {"system": "sedge, umbrella (small-flower umbrella sedge, Cyperus difformis)", "assay": "Test B flooded paddy test, visual plant response rating 0-100", "settings": "250 g ai/ha, Flood, applied to paddy water, evaluated after 13 days", "procedure,_shortened": "as §2"}, "[14]": {"system": "barnyardgrass (Echinochloa crusgalli)", "assay": "Test B flooded paddy test, visual plant response rating 0-100", "settings": "250 g ai/ha, Flood, applied to paddy water, evaluated after 13 days", "procedure,_shortened": "as §2"}, "[15]": {"system": "galium (catchweed bedstraw, Galium aparine)", "assay": "Test A postemergence application, visual injury rating 0-100", "settings": "10 days", "procedure,_shortened": "as §1"}, "[16]": {"system": "oat, wild (wild oat, Avena fatua)", "assay": "Test A postemergence application, visual injury rating 0-100", "settings": "10 days", "procedure,_shortened": "as §1"}, "[17]": {"system": "blackgrass (Alopecurus myosuroides)", "assay": "Test A postemergence application, visual injury rating 0-100", "settings": "10 days", "procedure,_shortened": "as §1"}, "[18]": {"system": "palmer (palmer amaranth, palmer pigweed, Amaranthus palmeri)", "assay": "Test A postemergence application, visual injury rating 0-100", "settings": "10 days", "procedure,_shortened": "as §1"}, "[19]": {"system": "horseweed (Erigeron canadensis)", "assay": "Test A postemergence application, visual injury rating 0-100", "settings": "10 days", "procedure,_shortened": "as §1"}, "[20]": {"system": "barnyardgrass (Echinochloa crus-galli)", "assay": "Test A postemergence application, visual injury rating 0-100", "settings": "10 days", "procedure,_shortened": "as §1"}, "corn (Zea mays) [21]": {"system": "corn (Zea mays)", "assay": "Test A postemergence application, visual injury rating 0-100", "settings": "10 days", "procedure,_shortened": "as §1"}, "[22]": {"system": "green foxtail (Setaria viridis)", "assay": "Test A postemergence application, visual injury rating 0-100", "settings": "10 days", "procedure,_shortened": "as §1"}, "kochia (Bassia scoparia) [23]": {"system": "kochia (Bassia scoparia)", "assay": "Test A postemergence application, visual injury rating 0-100", "settings": "10 days", "procedure,_shortened": "as §1"}, "soybean (Glycine max) [24]": {"system": "soybean (Glycine max)", "assay": "Test A postemergence application, visual injury rating 0-100", "settings": "10 days", "procedure,_shortened": "as §1"}, "[25]": {"system": "wheat (Triticum aestivum)", "assay": "Test A postemergence application, visual injury rating 0-100", "settings": "10 days", "procedure,_shortened": "as §1"}, "[26]": {"system": "ragweed (common ragweed, Ambrosia artemisiifolia)", "assay": "Test A postemergence application, visual injury rating 0-100", "settings": "10 days", "procedure,_shortened": "as §1"}, "[27]": {"system": "ryegrass, Italian (italian ryegrass, Lolium multiflorum)", "assay": "Test A postemergence application, visual injury rating 0-100", "settings": "10 days", "procedure,_shortened": "as §1"}, "[28]": {"settings": "31 g ai/ha, postemergence, 0 = no effect, 100 = complete control"}, "[29]": {"settings": "Postemergence, 125 g ai/ha, 0 is no effect, 100 is complete control"}}, "data": [{"smiles": "CCOC(=O)COC(=O)C1C=CC(NC(=O)C2(C)CN(c3cc(F)cc(F)c3)C(=O)O2)C1", "note": "(stereo not shown) [Compound 53]", "values": [{"measurement": "Oat, Wild plant response rating (0-100)", "setting": "[1]; 31 g ai/ha", "result": 50}, {"measurement": "Oat, Wild plant response rating (0 to 100 scale)", "setting": "[1]; 125 g ai/ha", "result": 90}, {"measurement": "Blackgrass plant response rating (0-100)", "setting": "[2]; 31 g ai/ha", "result": 50}, {"measurement": "Blackgrass plant response rating (0 to 100 scale)", "setting": "[2]; 125 g ai/ha", "result": 90}, {"measurement": "Amaranth, Palmer plant response rating (0-100)", "setting": "[3]; 31 g ai/ha", "result": 30}, {"measurement": "Amaranth, Palmer plant response rating (0 to 100 scale)", "setting": "[3]; 125 g ai/ha", "result": 60}, {"measurement": "Barnyardgrass plant response rating (0-100)", "setting": "[4]; 31 g ai/ha", "result": 30}, {"measurement": "Barnyardgrass plant response rating (0 to 100 scale)", "setting": "[4]; 125 g ai/ha", "result": 100}, {"measurement": "Corn plant response rating (0-100)", "setting": "corn (Zea mays) [5]; 31 g ai/ha", "result": 0}, {"measurement": "Corn plant response rating (0 to 100 scale)", "setting": "corn (Zea mays) [5]; 125 g ai/ha", "result": 60}, {"measurement": "Foxtail, Green plant response rating (0-100)", "setting": "[6]; 31 g ai/ha", "result": 0}, {"measurement": "Foxtail, Green plant response rating (0 to 100 scale)", "setting": "[6]; 125 g ai/ha", "result": 20}, {"measurement": "Kochia plant response rating (0-100)", "setting": "kochia (Bassia scoparia) [7]; 31 g ai/ha", "result": 0}, {"measurement": "Kochia plant response rating (0 to 100 scale)", "setting": "kochia (Bassia scoparia) [7]; 125 g ai/ha", "result": 90}, {"measurement": "Soybean plant response rating (0-100)", "setting": "soybean (Glycine max) [8]; 31 g ai/ha", "result": 30}, {"measurement": "Soybean plant response rating (0 to 100 scale)", "setting": "soybean (Glycine max) [8]; 125 g ai/ha", "result": 70}, {"measurement": "Wheat plant response rating (0-100)", "setting": "[9]; 31 g ai/ha", "result": 70}, {"measurement": "Wheat plant response rating (0 to 100 scale)", "setting": "[9]; 125 g ai/ha", "result": 90}, {"measurement": "Ragweed plant response rating (0-100)", "setting": "[10]; 31 g ai/ha", "result": 0}, {"measurement": "Ragweed plant response rating (0 to 100 scale)", "setting": "[10]; 125 g ai/ha", "result": 20}, {"measurement": "Ryegrass, Italian plant response rating (0-100)", "setting": "[11]; 31 g ai/ha", "result": 70}, {"measurement": "Ryegrass, Italian plant response rating (0 to 100 scale)", "setting": "[11]; 125 g ai/ha", "result": 100}, {"measurement": "Plant response rating, Ducksalad (0 to 100 scale, 0 is no effect and 100 is complete control)", "setting": "[12]", "result": 90}, {"measurement": "Plant response rating, Rice (0 to 100 scale, 0 is no effect and 100 is complete control)", "setting": "rice (Oryza sativa)", "result": 20}, {"measurement": "Plant response rating, Sedge, Umbrella (0 to 100 scale, 0 is no effect and 100 is complete control)", "setting": "[13]", "result": 60}, {"measurement": "Plant response rating, Barnyardgrass (0 to 100 scale, 0 is no effect and 100 is complete control)", "setting": "[14]", "result": 90}, {"measurement": "Galium plant response rating (0-100)", "setting": "[15]; [28]", "result": 80}, {"measurement": "Galium plant response rating (0 to 100 scale)", "setting": "[15]; [29]", "result": 80}, {"measurement": "Oat, Wild plant response rating (0-100)", "setting": "[16]; [28]", "result": 90}, {"measurement": "Oat, Wild plant response rating (0 to 100 scale)", "setting": "[16]; [29]", "result": 90}, {"measurement": "Blackgrass plant response rating (0-100)", "setting": "[17]; [28]", "result": 70}, {"measurement": "Blackgrass plant response rating (0 to 100 scale)", "setting": "[17]; [29]", "result": 80}, {"measurement": "Amaranth, Palmer plant response rating (0-100)", "setting": "[18]; [28]", "result": 70}, {"measurement": "Amaranth, Palmer / Pigweed, Palmer plant response rating (0 to 100 scale)", "setting": "[18]; [29]", "result": 90}, {"measurement": "Horseweed plant response rating (0-100)", "setting": "[19]; [28]", "result": 60}, {"measurement": "Horseweed plant response rating (0 to 100 scale)", "setting": "[19]; [29]", "result": 70}, {"measurement": "Barnyardgrass plant response rating (0-100)", "setting": "[20]; [28]", "result": 100}, {"measurement": "Barnyardgrass plant response rating (0 to 100 scale)", "setting": "[20]; [29]", "result": 100}, {"measurement": "Corn plant response rating (0-100)", "setting": "corn (Zea mays) [21]; [28]", "result": 100}, {"measurement": "Corn plant response rating (0 to 100 scale)", "setting": "corn (Zea mays) [21]; [29]", "result": 100}, {"measurement": "Foxtail, Green plant response rating (0-100)", "setting": "[22]; [28]", "result": 50}, {"measurement": "Foxtail, Green plant response rating (0 to 100 scale)", "setting": "[22]; [29]", "result": 70}, {"measurement": "Kochia plant response rating (0-100)", "setting": "kochia (Bassia scoparia) [23]; [28]", "result": 80}, {"measurement": "Kochia plant response rating (0 to 100 scale)", "setting": "kochia (Bassia scoparia) [23]; [29]", "result": 80}, {"measurement": "Soybean plant response rating (0-100)", "setting": "soybean (Glycine max) [24]; [28]", "result": 70}, {"measurement": "Soybean plant response rating (0 to 100 scale)", "setting": "soybean (Glycine max) [24]; [29]", "result": 70}, {"measurement": "Wheat plant response rating (0-100)", "setting": "[25]; [28]", "result": 90}, {"measurement": "Wheat plant response rating (0 to 100 scale)", "setting": "[25]; [29]", "result": 90}, {"measurement": "Ragweed plant response rating (0-100)", "setting": "[26]; [28]", "result": 50}, {"measurement": "Ragweed plant response rating (0 to 100 scale)", "setting": "[26]; [29]", "result": 80}, {"measurement": "Ryegrass, Italian plant response rating (0-100)", "setting": "[27]; [28]", "result": 90}, {"measurement": "Ryegrass, Italian plant response rating (0 to 100 scale)", "setting": "[27]; [29]", "result": 90}]}]}
